Results from patent US5859188A, “Method for discovering novel anthelmintic compounds” (priority 1997, dated 1999).
Ends that are not written are not given here. Peptide text beside a SMILES is read from it. * marks the point of attachment. X1 = CC(C)C[C@@H](CN[C@@H](CCCNC(=N)N)C(=O)N[C@@H](Cc1ccccc1)C(N)=O)N*

Tests used:
[1] = test system: receptor preparation (membrane fraction of Ascaris suum body wall muscle), AF2 binding sites; test: Displacement of radioactive AF2 ([125I]AF2) in a receptor binding assay
Experimental: Adult female Ascaris suum, swine intestinal parasites, are collected in an abattoir after their removal from the intestine using pressurized water. Healthy specimens over 25 cm are selected, rinsed and placed in Ascaris Ringer's Solution (ARS: 4 mM NaCl, 5.9 mM CaCl2, 4.9 mM MgCl2, 5 mM Tris (C4 H11 NO3), 125 mM NaC2 H3 O2, 24.5 mM KCl, pH=7.4) at 37° C. Specimens are placed in a thermos filled with 37C Ascaris Ringer's solution and immediately air shipped to our laboratory. Upon arrival they are placed in fresh ARS (changed daily) and maintained at 37° C. for up to 3-4 days prior to use.
Ascaris suum body wall tissue (muscle) is dissected out by pinning each specimen in a dissection tray, opening the worm along its entire length at the lateral line with a scalpel, removing the intestine and ovaries and then scraping the muscle from the cuticle. One worm yields approximately 1.0 g tissue. Tissue collected is flash frozen in liquid nitrogen and stored at -80° C. until needed.
Membrane suspension for the binding assay is prepared as follows. […]
Each replicate is one well of a standard 96-well plate and has a volume of 200 μl containing 15 ug protein (preparation described above). […] The plate is shaken on a rotary shaker for 2 hours and then counted on a Top Count® scintillation counter. […]

[2] = test system: innervated Ascaris suum muscle preparation; test: Potency evaluation bioassay: muscle tension and contractile frequency of innervated Ascaris suum muscle preparation; conditions: for Tension: 1 nM peptide, mean
Experimental: AF2 and iodinated AF2 were evaluated in a bioassay using an innervated Ascaris suum muscle preparation and potency was estimated by measuring the physiological effects of the peptides on A. suum muscle tension and contractile frequency.
An adult female was bisected transversely just anterior to the oviduct. A 2 cm segment was obtained anterior from the initial cut and that section was placed immediately under 37° C. medium in a dissection chamber. Two muscle strips were then prepared from each segment. Strips were prepared by cutting the segment longitudinally along one lateral line, removing the gut and then severing the opposite lateral line. Steel wires, 4 cm long, 0.25 mm diameter, with terminal sharpened hooks, were inserted through the muscle strip approximately 3 mm and centered from each end. These hooks were used to suspend the muscle strip between an isometric force transducer and a stationary holdfast in a 37° C. water jacketed incubation chamber filled with suppressive Ascaris Ringer's Solution constantly bubbled with N2. The transducer was connected to a Gould chart recorder via a Gould Universal amplifier.
The muscle tension on each preparation was "normalized" to zero five minutes before the addition of a test compound or vehicle. Compounds or vehicles were introduced from stock solutions and assayed at a final concentration of 1 nM in replicate (n=6). […] Inhibition is manifested as a drop in baseline tension (compared to control), while excitation is defined as a marked rise in baseline tension, often superimposed with transient muscle contractions (spiking). In order to estimate the net change in muscle tension of these preparations, the midpoint of the spike was estimated visually. Muscle tension data were analyzed by analysis of variance.

[3] = test system: A. suum muscle strips; conditions: cited from earlier work; for Threshold Concentration (ND class): highest concentration 10 μM; for Threshold Concentration: lowest tested concentration that detectably altered tension and/or contractile activity in at least half the strips
[4] = test system: Ascaris suum tissues; conditions: tritium on leucine moiety; cited from earlier work

| Compound | Threshold Concentration (ND class) [3] | Threshold Concentration [3] [µM] | also measured |
| --- | --- | --- | --- |
| Lys-His-Glu-Tyr^--I -Leu-Arg-Phe-amide [Iodo AF2] |  |  | specific binding ([1]; radioligand in current embodiment of binding assay): > 80%; type of response of muscle tension ([2]; 1 nM): biphasic responses (short term inhibition followed by long term excitation); Tension ([2]; 5 min after peptide addition): -430 mg; Tension ([2]; 15 min after peptide addition): -403 mg; Tension ([2]; 30 min after peptide addition): -237 mg; Tension ([2]; 60 min after peptide addition): -437 mg; Spike amplitude ([2]; 1 nM, FIG. 1): significant increase |
| KNEFIRA-NH2 | ND ("ND" means no detectable effect at 10 μM) |  |  |
| KNEYIRF-NH2 |  | 3.2 |  |
| KNEAIRF-NH2 |  | 3.2 |  |
| ANEFIRF-NH2 | ND ("ND" means no detectable effect at 10 μM) |  |  |
| KNAFIRF-NH2 |  | 0.1 |  |
| FIRFamide | ND ("ND" means no detectable effect at 10 μM) |  |  |
| KNEFIAF-NH2 |  | 10 |  |
| CC(C)C[C@@H](CN[C@@H](CCCNC(=N)N)C(=O)N[C@@H](Cc1ccccc1)C(N)=O)NC(=O)[C@H](Cc1ccc(O)cc1)NC(=O)[C@H](CCC(=O)O)NC(=O)[C@H](Cc1c[nH]cn1)NC(=O)[C@@H](N)CCCCN [KHEYL*RFamide (reduced bond), KHEYL*RFamide] (H-KHEY-X1) |  |  | IC50 ([1]; displacement of radioactive AF2): 20 nM |
| KAEFIRF-NH2 | ND ("ND" means no detectable effect at 10 μM) |  |  |
| KNEFARF-NH2 |  | 10 |  |
| [^3 H]PF1: PF1 (Ser-Asp-Pro-Asn-Phe-Leu-Arg-Phe-NH2 ; SDPNFLRFamide) radiolabelled by exchanging a tritium atom for a hydrogen on the leucine moiety (SDPNFLRF-NH2; also: tritium label on Leu6) |  |  | specific binding [4]: 40% |
| NEFIRF-NH2 | ND ("ND" means no detectable effect at 10 μM) |  |  |
